The text below walks through data of patent US6841519B1, “Isoxazoline derivatives and herbicides containing the same as the active ingredient” (Kumiai Chemical Industry Co., Ltd., priority 1999, dated 2005).

Format in all cases: in vivo
Assay [1] relates to Echinochloa oryzicola Vasing. (Eo). Kind of assay: Test for herbicidal effect by paddy field soil treatment (Test Example 1). The settings on record: application amount (active ingredient) 100 g/10 a, examined at the 21st day from the treatment, index per Table 40. The procedure, abridged:
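Eo seeds sown in puddled paddy soil under 3 cm water; next day a water-diluted wettable powder was dropped onto the water surface at 100 g active ingredient per 10 ares. Herbicidal effect scored on a standard scale 21 days after treatment, greenhouse-grown.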

Assay [2] concerns Echinochloa crus-galli (L.) Beauv. var. crusgall (Ec). Kind of assay: Test for herbicidal effect by upland field soil treatment (Test Example 2), Ec. The procedure, abridged: (§1)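 Echinochloa crus-galli and Setaria viridis were sown in upland field soil and covered, then the soil surface was sprayed with water-diluted wettable powder at 100 g active ingredient per 10 ares (100 liters per 10 ares). Plants were grown in a greenhouse and scored on a standard scale on day 21.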

Assay [3] relates to Setaria viridis (L.) Beauv. (Se). Kind of assay: Test for herbicidal effect by upland field soil treatment (Test Example 2), Se. The procedure, abridged: as §1
The test system of assay [4] is Echinochloa crus-galli (L.) Beauv. var. crusgalli (Ec). Kind of assay: Test for herbicidal effect by upland foliage treatment (Test Example 3). Conditions: 100 g/10 a active ingredient, examined at 14th day. The procedure: Test For Herbicidal Effect By Upland Foliage Treatment
An upland field soil was filed in a plastic pot of 80 cm^2. Seeds of Echinochloa crus-galli (L.) Beauv. var. crusgalli (Ec) were sowed. Breeding was made in a greenhouse for 2 weeks. Wettable powders produced in accordance with the Formulation 1 were diluted with water and sprayed on the whole foliage of plants from above the plants using a small sprayer in an amount of 100 liters per 10 ares so that the amount of each active ingredient became 100 g per 10 ares. Then, breeding was made in the greenhouse, and the herbicidal effect of each wettable powder was examined at the 14th day from the treatment in accordance with the standard shown in Table 40.

Setting [5] is: 100 g/10 a active ingredient, examined at 21st day.
Setting [6] is: application amount (active ingredient) 100 g/10 a, examined at the 21st day from the treatment, index per Table 40.

`CC1(C)CC(S(=O)(=O)Cc2cccc(C(F)(F)F)c2F)=NO1` [Compound 1-515]: the “Herbicidal effect to Eo” value in assay [1] was 5 (A herbicidal effect or phytotoxicity of 90% or more). The “Herbicidal effect to Ec” value in assay [2] (setting [5]) and in assay [4] was 5 (A herbicidal effect or phytotoxicity of 90% or more) each time. The “Herbicidal effect to Se” value in assay [3] (setting [5]) is on record as 5 (A herbicidal effect or phytotoxicity of 90% or more).

Consider `Cc1c(CS(=O)(=O)C2=NOC(C)(C)C2)cccc1[N+](=O)[O-]` [Compound 1-537], for which the “Herbicidal effect to Eo” value in assay [1] is recorded as 5 (A herbicidal effect or phytotoxicity of 90% or more). The “Herbicidal effect to Ec” value in assay [2] (setting [5]) is 5 (A herbicidal effect or phytotoxicity of 90% or more); in assay [4], 4 (A herbicidal effect or phytotoxicity of 70% to less than 90%). The “Herbicidal effect to Se” value in assay [3] (setting [5]) was 5 (A herbicidal effect or phytotoxicity of 90% or more).

In the case of `CC1(C)CC(S(=O)(=O)Cc2ccc(Br)cc2F)=NO1` [Compound 1-516], in assay [1], the “Herbicidal effect to Eo” value is 5 (A herbicidal effect or phytotoxicity of 90% or more). For the same compound, the “Herbicidal effect to Ec” value in assay [2] (setting [5]) and in assay [4] was 5 (A herbicidal effect or phytotoxicity of 90% or more) each time. The “Herbicidal effect to Se” value in assay [3] (setting [5]) was 5 (A herbicidal effect or phytotoxicity of 90% or more).

As for `CCCc1cccc(F)c1CS(=O)(=O)C1=NOC(C)(C)C1` [Compound 1-553], the “Herbicidal effect to Eo” value in assay [1] was 5 (A herbicidal effect or phytotoxicity of 90% or more). The “Herbicidal effect to Ec” value in assay [2] (setting [5]) and in assay [4] was 5 (A herbicidal effect or phytotoxicity of 90% or more) in each case. Also, the “Herbicidal effect to Se” value in assay [3] (setting [5]) is 5 (A herbicidal effect or phytotoxicity of 90% or more).

For `C=CCOc1ccccc1CS(=O)(=O)C1=NOC(C)(C)C1` [Compound 1-589], the “Herbicidal effect to Eo” value in assay [1] is on record as 5 (A herbicidal effect or phytotoxicity of 90% or more). Further, the “Herbicidal effect to Ec” value in assay [2] (setting [5]) is 5 (A herbicidal effect or phytotoxicity of 90% or more); in assay [4], 4 (A herbicidal effect or phytotoxicity of 70% to less than 90%). Besides, the “Herbicidal effect to Se” value in assay [3] (setting [5]) is 5 (A herbicidal effect or phytotoxicity of 90% or more).

For the compound `CCC1(C)CC(S(=O)(=O)Cc2c(F)cccc2F)=NO1` (stereo not shown) [Compound 1-200, 5-ethyl-3-(2,6-difluorobenzylsulfonyl)-5-methyl-2-isoxazoline], the “Herbicidal effect to Eo” value in assay [1] is listed as 5 (A herbicidal effect or phytotoxicity of 90% or more). Moreover, the “Herbicidal effect to Ec” value was 5 (A herbicidal effect or phytotoxicity of 90% or more) in assay [2] (setting [6]) and 4 (A herbicidal effect or phytotoxicity of 70% to less than 90%) in assay [4]. Also, the “Herbicidal effect to Se” value in assay [3] (setting [6]) is reported as 5 (A herbicidal effect or phytotoxicity of 90% or more).

Consider `CCC1(C)CC(S(=O)(=O)Cc2ccccc2C)=NO1` (stereo not shown) [Compound 1-201], for which, in assay [1], the “Herbicidal effect to Eo” value is 5 (A herbicidal effect or phytotoxicity of 90% or more). For the same compound, the “Herbicidal effect to Ec” value in assay [2] (setting [6]) and in assay [4] was 5 (A herbicidal effect or phytotoxicity of 90% or more) in each case. The “Herbicidal effect to Se” value in assay [3] (setting [6]) was 5 (A herbicidal effect or phytotoxicity of 90% or more).

Turning to `CCc1cccc(C)c1CS(=O)(=O)C1=NOC(C)(C)C1` [Compound 1-525], the “Herbicidal effect to Eo” value in assay [1] is 5 (A herbicidal effect or phytotoxicity of 90% or more). Further, the “Herbicidal effect to Ec” value in assay [2] (setting [5]) and in assay [4] was 5 (A herbicidal effect or phytotoxicity of 90% or more) each time. Besides, in assay [3] (setting [5]), the “Herbicidal effect to Se” value was 5 (A herbicidal effect or phytotoxicity of 90% or more).

Take `CC1(C)CC(S(=O)(=O)Cc2cc(C(F)(F)F)ccc2F)=NO1` [Compound 1-514]: in assay [1], the “Herbicidal effect to Eo” value is recorded as 5 (A herbicidal effect or phytotoxicity of 90% or more). Moreover, the “Herbicidal effect to Ec” value in assay [2] (setting [5]) and in assay [4] was 5 (A herbicidal effect or phytotoxicity of 90% or more) throughout. For the same compound, the “Herbicidal effect to Se” value in assay [3] (setting [5]) is on record as 5 (A herbicidal effect or phytotoxicity of 90% or more).

On to `CCOc1cccc(Cl)c1CS(=O)(=O)C1=NOC(C)(C)C1` [Compound 1-564], for which the “Herbicidal effect to Eo” value in assay [1] is reported as 5 (A herbicidal effect or phytotoxicity of 90% or more). Besides, the figures for the “Herbicidal effect to Ec” value in assay [2] (setting [5]) and in assay [4] were 5 (A herbicidal effect or phytotoxicity of 90% or more) and 4 (A herbicidal effect or phytotoxicity of 70% to less than 90%), respectively. Further, the “Herbicidal effect to Se” value in assay [3] (setting [5]) is reported as 5 (A herbicidal effect or phytotoxicity of 90% or more).

`CCC1(C)CC(S(=O)(=O)Cc2cccc(Cl)c2)=NO1` (stereo not shown) [Compound 1-193]: the “Herbicidal effect to Eo” value in assay [1] is on record as 5 (A herbicidal effect or phytotoxicity of 90% or more). Further, the “Herbicidal effect to Ec” value in assay [2] (setting [6]) and in assay [4] was 5 (A herbicidal effect or phytotoxicity of 90% or more) in each case. For the same compound, in assay [3] (setting [6]), the “Herbicidal effect to Se” value is 4 (A herbicidal effect or phytotoxicity of 70% to less than 90%).

Consider `CC1(C)CC(S(=O)(=O)Cc2cc(F)c(F)cc2F)=NO1` [Compound 1-510], for which the “Herbicidal effect to Eo” value in assay [1] was 5 (A herbicidal effect or phytotoxicity of 90% or more). The “Herbicidal effect to Ec” value was 5 (A herbicidal effect or phytotoxicity of 90% or more) in assay [2] (setting [5]) and 4 (A herbicidal effect or phytotoxicity of 70% to less than 90%) in assay [4]. In assay [3] (setting [5]), the “Herbicidal effect to Se” value is 5 (A herbicidal effect or phytotoxicity of 90% or more).

In the case of `CC1(C)CC(S(=O)(=O)Cc2ccccc2OC(F)F)=NO1` [Compound 1-55], in assay [1], the “Herbicidal effect to Eo” value is reported as 5 (A herbicidal effect or phytotoxicity of 90% or more). In addition, the “Herbicidal effect to Ec” value in assay [2] (setting [6]) is recorded as 5 (A herbicidal effect or phytotoxicity of 90% or more); in assay [4], 4 (A herbicidal effect or phytotoxicity of 70% to less than 90%). Also, in assay [3] (setting [6]), the “Herbicidal effect to Se” value is listed as 5 (A herbicidal effect or phytotoxicity of 90% or more).

In the case of `CC1(C)CC(S(=O)(=O)Cc2ccc(Cl)cc2Cl)=NO1` [Compound 1-488], the “Herbicidal effect to Eo” value in assay [1] is reported as 5 (A herbicidal effect or phytotoxicity of 90% or more). The “Herbicidal effect to Ec” value in assay [2] (setting [6]) is 5 (A herbicidal effect or phytotoxicity of 90% or more); in assay [4], 4 (A herbicidal effect or phytotoxicity of 70% to less than 90%). Further, the “Herbicidal effect to Se” value in assay [3] (setting [6]) is 4 (A herbicidal effect or phytotoxicity of 70% to less than 90%).

As for `CC1(C)CC(S(=O)(=O)Cc2ccc(Cl)cc2)=NO1` [Compound 1-4], the “Herbicidal effect to Eo” value in assay [1] is listed as 5 (A herbicidal effect or phytotoxicity of 90% or more). The “Herbicidal effect to Ec” value in assay [2] (setting [6]) is recorded as 5 (A herbicidal effect or phytotoxicity of 90% or more); in assay [4] it was 4 (A herbicidal effect or phytotoxicity of 70% to less than 90%). In addition, in assay [3] (setting [6]), the “Herbicidal effect to Se” value is reported as 5 (A herbicidal effect or phytotoxicity of 90% or more).

In the case of `Cc1ccc(CS(=O)(=O)C2=NOC(C)(C)C2)cc1C` [Compound 1-513], the “Herbicidal effect to Eo” value in assay [1] is reported as 5 (A herbicidal effect or phytotoxicity of 90% or more). Further, the “Herbicidal effect to Ec” value in assay [2] (setting [5]) and in assay [4] was 5 (A herbicidal effect or phytotoxicity of 90% or more) in each case. Further, the “Herbicidal effect to Se” value in assay [3] (setting [5]) was 5 (A herbicidal effect or phytotoxicity of 90% or more).
